Numbered stars: 1 amine (or outer) side, 2 acyl side, 3 side chain; on linkers, the order of the positions; unused ones are H or OH. Peptide text beside a SMILES is read from it. * marks the point of attachment. C18 diacid = O=C(O)CCCCCCCCCCCCCCCCC(=O)*; γGlu = O=C(O)[C@H](CCC(=O)[*:2])N[*:1]
Legend:
[1] = Assay (IV) determination of solubility; type: physicochemical
Procedure: Assay (IV)—Determination of Solubility
The mimylin peptide was dissolved in water at ˜500 nmol/ml and mixed 1:1 with a series of buffers (100 mM glycylglycine pH 3.0, 100 mM glycylglycine pH 4.0, 100 mM glycylglycine pH 5.0, 100 mM bistrispropane pH 6.0, 100 mM bistrispropane pH 6.5, 100 mM bistrispropane pH 7.0, 100 mM bistrispropane pH 7.5, 100 mM bistrispropane pH 8.0).

[2] = Assay (XV) subcutaneous PK in LYD-pigs, co-formulated or co-dosed with liraglutide; type: in vivo; settings: for Cmax/D / T½ (hous): LYD-pigs s.c.
Procedure: The studies were performed in female LYD pigs of SPF origin delivered from Lars Jonson, Hillerødvej 70, Lynge.
Before the animals arrived, the animal rooms and pens were cleaned and disinfected with Virkon S. During the study, the animal rooms were cleaned and washed regularly.
The pigs were group housed during the acclimatisation period. The pigs were fitted with a central venous catheter while under anaesthesia and after the single housed after catheterization in pens ≧3.1 m^2 with straw as bedding. The temperature in the rooms was set at 20−23° C. and the relative humidity to 30-70%. The rooms were illuminated to give a cycle of 12 hours light and 12 hours darkness. Light was on from 07.00 to 19.00 h.
The formulations was prepared similarly and filled in cartridges in all cases.
The animals were dosed subcutaneously as follows.
The s.c. dosing was performed in 4 mm depth, in a site of injection which was secured on beforehand by ultrasound to avoid muscular tissue or heavy vascularization. Dosing was made using NovoPen®4 and needle Novofine 28 G and a needle stopper to ensure 4 mm depth of injection. The needle was kept in the subcutis for 10 seconds after the injection to secure deposition of compound. […] The co-formulation was administered as one injection. Study was performed as a cross over study with adequate wash out between dosings.
Blood was sampled at predefined time points for up till 15 days post dosing to adequately cover the full plasma concentration-time profile of the mimylin derivative. Blood samples were drawn from a central venous catheter to jugularis made through the catheter which was afterwards flushed with 10 ml 0.9% NaCl.
For each blood sampling time point approximately 0.8 mL of whole blood was collected in a 1.5 mL EDTA coated tube, and the tube was gently turned to allowing mixing of the sample with the anticoagulant. Blood samples (for example 0.8 mL) were collected in EDTA buffer (8 mM) and then centrifuged at 4° C. and 2000 G for 10 minutes. Plasma was pipetted into Micronic tubes on dry ice, and kept at −20° C. until analysis.
Individual plasma concentration-time profiles were analysed by a non-compartmental model in Phoenix WinNonlin version 6.3 (Pharsight Inc., Mountain View, Calif., USA).
The area under the plasma concentration versus time curve (AUC, [time×concentration]) was calculated (by the Pharsight programme) after subcutaneous administration, typically until 240-288 hours post dosing, or until last measured concentration. The AUC was calculated and given as AUCinf-pred and dose normalized.
Results of co-formulation studies in LYD-pigs are summarized below

[3] = Assay (IX) pK, T½ in mini-pig; type: in vivo, Göttingen mini-pigs; settings: i.v.
Procedure: Assay (IX)—pK—Determination of T½ in Mini-Pig
Pharmacokinetic (PK) studies in Göttingen mini-pigs were conducted in order to determine the T½ of the mimylin compound according to the Examples as indicated after i.v. administration.
T½ values of the amylin analogues of the invention is determined by pharmacokinetic studies in female Göttingen mini-pigs from Ellegaard Göttingen Minipigs ApS and the principles of laboratory animal care are followed.
An acclimatisation period of approximately 6-10 days was allowed before the animals entered the study. At start of the acclimatisation period the mini-pigs were about 5 to 12 months old and in the weight range of 15-35 kg. The mini-pigs had two central venous catheters inserted which were used for blood sampling.
The studies were conducted in an animal room which was illuminated to give a cycle of approximately 12 hours light and 12 hours darkness. The animals were housed individually. The animals had free access to domestic quality drinking water during the study, and no food restrictions applied for PK studies. The animals were weighed on arrival and on the days of dosing.
In the present studies the test substances were administered intravenously in approximately 5 nmol/kg dose. The animals received a single intravenous injection in one central venous catheter and blood sampling was performed from the other catheter, where possible. Each test substance was given to typically three but in some cases two or four animals.
A full plasma concentration-time profile, employing 12-16 sampling points, was obtained from each animal. In example blood samples were collected according to the following schedule:
After Intravenous Administration:
Pre-dose (0), 0.5, 1, 2, 4, 6, 8, 12, 24, 48, 72, 96, 120, 168 and 240 hours after injection. In some cases also additional blood samples up to 288 hours post injection were taken.
At each sampling time, 0.5 to 2 ml of blood was drawn from each animal. The blood samples were taken via the central venous catheter.
The 0.8 mL blood samples were collected into EDTA test tubes (8 mM EDTA). Blood samples were kept on ice for max 20 min. before centrifugation. Plasma was separated using centrifugation (i.e. at 4° C., 10 min., 2000G) and was immediately transferred to Micronic tubes on dry ice. Approximately 200 μl plasma was transferred to each Micronic tube. The plasma was stored at −20° C. until assayed. The plasma samples were assayed for the content of compound using LCMS.
The plasma concentration-time profiles were analysed by a non-compartmental pharmacokinetic analysis (NCA) using Phoenix WinNonlin 6.3 (Pharsight Inc., Mountain View, Calif., USA). NCA was performed using the individual plasma concentration-time profiles from each animal. T½ is the terminal half-life=In2/λz and was determined from λz, the first order rate constant associated with the terminal (log-linear) portion of the curve, estimated by linear regression of time vs. log concentration.
MS-Method for Amylin and Mimylin Quantification
40 μl plasma is diluted with 120 μl 66.67% EtOH+1% HCOOH and mixed. Centrifuged for 20 min. at 13000 rpm, 4° C. The supernatant is analyzed by an LC-MS method on a Sciex API 3000 and quantitated with a standard made up in plasma

[4] = Co-formulation liraglutide + Ex #46

Solubility ([1]; pH 3.0): ≧200 μM | Solubility ([1]; pH 4.0): ≧200 μM | Solubility ([1]; pH 5.0): ≧200 μM | Solubility ([1]; pH 6.0): ≧200 μM | Solubility ([1]; pH 6.5): ≧200 μM | Solubility ([1]; pH 7.0): ≧200 μM | Solubility ([1]; pH 7.5): ≧200 μM | Solubility ([1]; pH 8.0): ≧200 μM | Cmax/D ([2]; Co-dosing liraglutide + Ex #46): 5.2 kg/L | T½ (hous) ([2]; Co-dosing liraglutide + Ex #46): 129 hous | Cmax/D [2, 4]: 5.7 kg/L | T½ (hous) [2, 4]: 133 hous | PK mini pig iv T½ [3]: 118 h
Compound: CC(C)C[C@H](NC(=O)[C@H](C)NC(=O)[C@H](C)NC(=O)[C@@H](NC(=O)[C@H](CO)NC(=O)[C@H](CC(C)C)NC(=O)[C@H](CCC(=O)O)NC(=O)[C@H](CO)NC(=O)[C@H](C)NC(=O)CC[C@H](NC(=O)CCCCCCCCCCCCCCCCC(=O)O)C(=O)O)[C@@H](C)O)C(=O)NCC(=O)N[C@@H](CCCNC(=N)N)C(=O)N[C@@H](CC(C)C)C(=O)N[C@@H](CO)C(=O)N[C@@H](C)C(=O)N[C@@H](CCC(=O)O)C(=O)N[C@@H](CC(C)C)C(=O)N[C@@H](Cc1cnc[nH]1)C(=O)N[C@@H](CCC(=O)O)C(=O)N[C@@H](CC(C)C)C(=O)N[C@@H](C)C(=O)N[C@H](C(=O)N[C@@H](CC(C)C)C(=O)N1CCC[C@H]1C(=O)N[C@@H](CCCNC(=N)N)C(=O)N[C@H](C(=O)N[C@@H](CCC(=O)O)C(=O)N[C@H](C(=O)NCC(=O)N[C@@H](CO)C(=O)NCC(=O)N[C@@H](CO)C(=O)N1CCC[C@H]1C(N)=O)[C@@H](C)O)[C@@H](C)O)[C@@H](C)O [Ex. #46, [N-terminal(C18 diacid-gGlu), des1, 30S, 31G]mimylin] ({C18 diacid-γGlu}-ASELSTAALGRLSAELHELATLPRTETGSGSP-NH2)
effect on PK profile of the co-formulated peptide ([2]; administered as co-formulations to LYD pigs): do not affect the PK profile of liraglutide
